Experimental data as given in US7538241B2, “Hsp90 family protein inhibitors” (Kyowa Hakko Kogyo Co., Ltd., priority 2003, dated 2009).

Columns and labels:
Format in all cases: cell-based
[1] = tested on: human chronic myelocytic leukemia-derived K562 cells; assay: Cell growth inhibition test with K562 cells (WST-1); conditions: 72 hours, read-out: 50% growth inhibition concentration (GI50)
Outline: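 K562 cells at 1500 cells/well in 10% FCS RPMI 1640, pre-incubated 5 h, then exposed to serially diluted compound for 72 h at 37° C, 5% CO2. Viability read by WST-1 after 2 h (absorbance 450/655 nm); GI50 reported.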

[2] = tested on: human mammary cancer-derived KPL-4 cells; assay: Cell growth inhibition test with KPL-4 cells (WST-1); conditions: KPL4, 72 hours, read-out: 50% growth inhibition concentration (GI50)
Outline: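 KPL-4 cells pre-incubated 24 h in 10% FCS DMEM, then exposed to serially diluted compound for 72 h at 37 °C, 5% CO2. WST-1 added for 1 h; A450 minus A655 read. GI50 relative to untreated cells.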

[3] = tested on: human multiple myeloma-derived KMS-11 cells; assay: Cell growth inhibition test with KMS-11 cells (WST-1); conditions: 72 hours, read-out: 50% growth inhibition concentration (GI50)
Protocol: In a 96-well plate (Nunc), human multiple myeloma-derived KMS-11 cells were sown in an amount of 4000 cells/well, and pre-incubated in 10% FCS-containing RPMI 1640 (Nissui) (incubation medium) in a 5% carbon dioxide incubator at 37° C. for 24 hours. Next, a DMSO solution of a test compound controlled at 10 mmol/L was stepwise diluted with the incubation medium, and added to each well in a total amount of 100 μL/well, and further incubated in the 5% carbon dioxide incubator at 37° C. for 72 hours. After the incubation, WST-1-labeled mixture (Rosh Diagnostic) diluted 2-fold with the incubation medium was added thereto in an amount of 20 μL/well, and incubated in the 5% carbon dioxide incubator at 37° C. for 2 hours. Using a microplate spectrophotometer (Biorad's Model 550), the absorbance at 450 nm and 655 nm of each well was measured. The cell growth inhibition activity of the test compound was indicated by the 50% growth inhibition concentration (GI50) thereof, like in Test Example 2.

Row | SMILES | GI50 [1] | GI50 [2] | GI50 [3]
1 | CCc1c(O)cc(O)c(-c2ccccc2)c1CC(=O)OC [Compound 52, Methyl 2-ethyl-3,5-dihydroxy-6-phenylphenylacetate] |  | ≤ 50 µM | ≤ 50 µM
2 | CCc1c(O)cc(O)c(-c2ccccc2)c1CCCOCC(=O)NCCO [Compound 167, 2-[3-(2-Ethyl-3,5-dihydroxy-6-phenylphenyl)propoxy]-N-(2-hydroxyethyl)acetamide] | ≤ 50 µM | ≤ 50 µM | 
3 | CCc1c(O)cc(O)c(-c2cccc(O)c2)c1CCOC [Compound 171, 6-Ethyl-4-(3-hydroxyphenyl)-5-(2-methoxyethyl)benzene-1,3-diol] | ≤ 50 µM | ≤ 50 µM | 
4 | CCc1c(O)cc(O)c(-c2cccc(O)c2)c1CCO [Compound 172, 6-Ethyl-5-(2-hydroxyethyl)-4-(3-hydroxyphenyl)benzene-1,3-diol] | ≤ 50 µM | ≤ 50 µM | 
5 | CCc1c(O)cc(O)c(-c2cccc(O)c2)c1CCOCC(O)CO (centres unmarked) [Compound 173, 5-[2-(2,3-dihydroxypropoxy)ethyl]-6-ethyl-4-(3-hydroxyphenyl)benzene-1,3-diol] | ≤ 50 µM | ≤ 50 µM | 
6 | CCc1c(O)cc(O)c(-c2ccccc2)c1CCOCCCO [Compound 175, 6-Ethyl-5-[2-(3-hydroxypropoxy)ethyl]-4-phenylbenzene-1,3-diol] | ≤ 50 µM | ≤ 50 µM | 
7 | CCc1c(O)cc(O)c(-c2cccc(OC)c2)c1CCOCC(O)CO (centres unmarked) [Compound 189, 5-[2-(2,3-Dihydroxypropoxy)ethyl]-6-ethyl-4-(3-methoxyphenyl)benzene-1,3-diol] | ≤ 50 µM | ≤ 50 µM | 
8 | CCc1c(O)cc(O)c(-c2ccccc2)c1CCc1ocnc1CO [Compound 210, 6-Ethyl-5-[2-(4-hydroxymethyl-1,3-oxazol-5-yl)ethyl]-4-phenylbenzene-1,3-diol] | ≤ 50 µM |  | ≤ 50 µM
9 | CCc1c(O)cc(O)c(-c2cccc(C)c2)c1CC1O[C@@H](CO)[C@H](CO)O1 [Compound 229, 5-{[(4S,5S)-4,5-bis(hydroxymethyl)-1,3-dioxolan-2-yl]methyl}-6-ethyl-4-(3-methylphenyl)benzene-1,3-diol] | ≤ 50 µM |  | ≤ 50 µM
10 | CCc1c(O)cc(O)c(-c2ccco2)c1CCOCCO [Compound 256, 6-Ethyl-4-(furan-2-yl)-5-[2-(2-hydroxyethoxy)ethyl]benzene-1,3-diol] | ≤ 50 µM |  | ≤ 50 µM
11 | COC(=O)Cc1cc(O)cc(O)c1-c1ccc2ccccc2c1 [Compound 270, Methyl-3,5-dihydroxy-2-(2-naphthyl)phenylacetate] | ≤ 50 µM | ≤ 50 µM | 
12 | CCc1cc(-c2n[nH]c3cc(OC)ccc23)c(O)cc1O [Compound 276, 6-Ethyl-4-(6-methoxy-1H-indazol-3-yl)benzene-1,3-diol] |  | ≤ 50 µM | ≤ 50 µM
13 | CCc1c(OC(=O)N2CCN(C)CC2)cc(O)c(-c2ccccc2)c1CCOCCOC [Compound 327, 4-Ethyl-3-[2-(2-methoxyethoxy)ethyl]-5-(4-methylpiperazin-1-ylcarbonyloxy)-2-phenylbenzen-1-ol] | ≤ 50 µM |  | 
14 | CCc1c(OC(C)=O)cc(OC(C)=O)c(-c2ccccc2)c1CCOCCOC [Compound 328, 1,5-Bis(acetyloxy)-4-ethyl-3-[2-(2-methoxyethoxy)ethyl]-2-phenylbenzene] | ≤ 50 µM |  | 

Next, values leading:

Row | GI50 [1] | GI50 [2] | GI50 [3] | SMILES
15 | ≤ 50 µM | ≤ 50 µM |  | COCCN(C)C(=O)Cc1c(Br)c(O)cc(O)c1-c1ccccc1 [Compound 37, 2-(2-Bromo-3,5-dihydroxy-6-phenylphenyl)-N-(2-methoxyethyl)-N-methylacetamide]
16 | ≤ 50 µM | ≤ 50 µM |  | COC(=O)Cc1c(C(C)=O)c(O)cc(O)c1-c1ccccc1 [Compound 69, Methyl 2-acetyl-3,5-dihydroxy-6-phenylphenylacetate]
17 | ≤ 50 µM | ≤ 50 µM |  | CCc1c(O)cc(O)c(-c2ccccc2)c1CCOC [Compound 83, 6-Ethyl-5-(2-methoxyethyl)-4-phenylbenzene-1,3-diol]
18 | ≤ 50 µM | ≤ 50 µM |  | OCCCc1c(Br)c(O)cc(O)c1-c1ccccc1 [Compound 104, 6-Bromo-5-(3-hydroxypropyl)-4-phenylbenzene-1,3-diol]
19 | ≤ 50 µM | ≤ 50 µM |  | CCc1c(O)cc(O)c(-c2ccccc2)c1CCCO [Compound 123, 6-Ethyl-5-(3-hydroxypropyl)-4-phenylbenzene-1,3-diol]
20 | ≤ 50 µM | ≤ 50 µM |  | CCc1c(O)cc(O)c(-c2cccc(C)c2)c1CCOC [Compound 130, 6-Ethyl-5-(2-methoxyethyl)-4-(3-methylphenyl)benzene-1,3-diol]
21 | ≤ 50 µM | ≤ 50 µM |  | COCCOCCc1c(C(C)=O)c(O)cc(O)c1-c1ccccc1 [Compound 136, 1-[2,4-Dihydroxy-6-[2-(2-methoxyethoxy)ethyl]-5-phenylphenyl)ethanone]
22 | ≤ 50 µM | ≤ 50 µM |  | COCCOCCc1c(C(C)=O)c(O)cc(O)c1-c1cccc(OC)c1 [Compound 137, 1-{2,4-dihydroxy-6-[2-(2-methoxyethoxy)ethyl]-5-(3-methoxyphenyl)phenyl}ethanone]
23 | ≤ 50 µM | ≤ 50 µM |  | CCc1c(O)cc(O)c(-c2cccc(OC)c2)c1CCO [Compound 143, 6-Ethyl-5-(2-hydroxyethyl)-4-(3-methoxyphenyl)benzene-1,3-diol]
24 | ≤ 50 µM | ≤ 50 µM |  | C=CCOCCCc1c(CC)c(O)cc(O)c1-c1ccccc1 [Compound 145, 5-(3-Allyloxypropyl)-6-ethyl-4-phenylbenzene-1,3-diol]
25 | ≤ 50 µM | ≤ 50 µM |  | CCc1c(O)cc(O)c(-c2ccccc2)c1CCCOCCOC [Compound 146, 6-Ethyl-5-[3-(2-methoxyethoxy)propyl]-4-phenylbenzene-1,3-diol]
26 | ≤ 50 µM | ≤ 50 µM |  | CCc1c(O)cc(O)c(-c2ccccc2)c1CCCOCC(O)CO (centres unmarked) [Compound 148, 5-[3-(2,3-Dihydroxypropoxy)propyl]-6-ethyl-4-phenylbenzene-1,3-diol]
27 | ≤ 50 µM | ≤ 50 µM |  | CCc1c(O)cc(O)c(-c2cccc(C)c2)c1CCOCCOC [Compound 149, 6-Ethyl-5-[2-(2-methoxyethoxy)ethyl]-4-(3-methylphenyl)benzene-1,3-diol]
28 | ≤ 50 µM | ≤ 50 µM |  | CCc1c(O)cc(O)c(-c2ccccc2)c1CCOCC(=O)NC [Compound 156, 2-[2-(2-Ethyl-3,5-dihydroxy-6-phenylphenyl)ethoxy]-N-methylacetamide]
29 | ≤ 50 µM | ≤ 50 µM |  | CCc1c(O)cc(O)c(-c2ccccc2)c1CCOCCO [Compound 161, 6-Ethyl-5-[2-(2-hydroxyethoxy)ethyl]-4-phenylbenzene-1,3-diol]
30 | ≤ 50 µM | ≤ 50 µM |  | CCc1c(O)cc(O)c(-c2ccccc2)c1CCCOCCO [Compound 162, 6-Ethyl-5-[3-(2-hydroxyethoxy)propyl]-4-phenylbenzene-1,3-diol]
31 | ≤ 50 µM | ≤ 50 µM |  | CCc1c(O)cc(O)c(-c2ccccc2)c1CCCOC(CO)CO [Compound 163, 5-{3-[Bis(hydroxymethyl)methoxy]propyl}-6-ethyl-4-phenylbenzene-1,3-diol]
32 | ≤ 50 µM | ≤ 50 µM |  | COCCOCCc1c(C(C)=O)c(O)cc(O)c1-c1cccc(O)c1 [Compound 165, 1-{2,4-Dihydroxy-5-(3-hydroxyphenyl)-6-[2-(2-methoxyethoxy)ethyl]phenyl}ethanone]
